Counter-ions that a name gives are not always drawn.
System: rats
Assay: Analgesic activity in rats, light beam on tip of tail (modified D'Amour and Smith procedure)
Type: in vivo, rat
Conditions: for ED50: Rattus norvegicus
Experimental: Rats weighing approximately 150 to 200 g. are placed in individual holders, and each holder in turn is situated so that a high intensity light beam shines on the tip of the tail. The intensity of the light beam is adjusted so that normal rats respond by moving their tails out of the light beam in 3 to 8 seconds. The average of two readings taken 20 minutes apart serves as a pre-drug control. Rats are selected for use whose control readings agree within 1 second. Compounds are administered and reaction times are measured every 20 minutes for 2 hours. Analgesic agents cause a significant increase in reaction time.

CN(C)C(c1cccc(O)c1)[C@H]1CCCC[C@H]1O (relative stereo) [1-cis-2-(α-dimethylamino-m-hydroxybenzyl)cyclohexanol]
No. Rats Showing Analgesia/No. Rats Tested (I.M., 0.41 mg/kg): 4/10 | No. Rats Showing Analgesia/No. Rats Tested (I.M., 0.62 mg/kg): 7/10 | No. Rats Showing Analgesia/No. Rats Tested (I.P., 3.12 mg/kg): 8/10 | No. Rats Showing Analgesia/No. Rats Tested (I.P., 6.25 mg/kg): 6/10 | No. Rats Showing Analgesia/No. Rats Tested (P.O., 3.12 mg/kg): 5/10 | No. Rats Showing Analgesia/No. Rats Tested (P.O., 6.25 mg/kg): 7/10

CCC(=O)O[C@@H]1CCCC[C@@H]1C(c1cccc(OC)c1)N(C)C.Cl (relative stereo) [Cis-2-[α-Dimethylamino-m-Methoxybenzyl]Cyclohexanol Propionate, Hydrochloride]
No. Rats Showing Analgesia/No. Rats Tested (I.M., 15.0 mg/kg): 3/10 | No. Rats Showing Analgesia/No. Rats Tested (I.P., 12.5 mg/kg): 3/5

CN(C)C(c1ccccc1)[C@H]1CCCC[C@H]1O (relative stereo) [Cis-2-[α-Dimethylaminobenzyl]-Cyclohexanol]
No. Rats Showing Analgesia/No. Rats Tested (I.M., 6.25 mg/kg): 8/10 | No. Rats Showing Analgesia/No. Rats Tested (I.P., 6.25 mg/kg): 9/10 | No. Rats Showing Analgesia/No. Rats Tested (I.P., 12.5 mg/kg): 8/10 | No. Rats Showing Analgesia/No. Rats Tested (P.O., 5.0 mg/kg): 6/10

COc1cccc(C([C@H]2CCCC[C@H]2O)N(C)C)c1 (relative stereo) [cis-2-(α-dimethylamino-m-methoxybenzyl)cyclohexanol]
No. Rats Showing Analgesia/No. Rats Tested (I.P., 25.0 mg/kg): 3/5

COCOc1cccc(C([C@H]2CCCC[C@H]2O)N(C)C)c1 (relative stereo) [cis-2-[α-dimethylamino-m-(methoxymethoxy)benzyl]cyclohexanol]
No. Rats Showing Analgesia/No. Rats Tested (I.M., 2.5 mg/kg): 3/10 | No. Rats Showing Analgesia/No. Rats Tested (I.M., 5.0 mg/kg): 5/10 | No. Rats Showing Analgesia/No. Rats Tested (I.P., 6.25 mg/kg): 2/5 | No. Rats Showing Analgesia/No. Rats Tested (I.P., 25.0 mg/kg): 5/5

CN(C)C(c1cccc(O)c1)[C@H]1CCCC[C@H]1O (stereo partly drawn) [Cis-2-(α-Dimethylamino-m-Hydroxybenzyl) Cyclohexanol, Hydrochloride]
No. Rats Showing Analgesia/No. Rats Tested (I.M., 2.5 mg/kg): 5/10 | No. Rats Showing Analgesia/No. Rats Tested (I.P., 3.12 mg/kg): 3/5 | No. Rats Showing Analgesia/No. Rats Tested (I.P., 12.5 mg/kg): 4/5 | No. Rats Showing Analgesia/No. Rats Tested (P.O., 5.0 mg/kg): 5/10

CN1CC[C@]23c4c5ccc(O)c4O[C@H]2[C@@H](O)C=C[C@H]3[C@H]1C5 [morphine, reference compound]
ED50 (im): 2 mg/kg | ED50 (ip): 3.5 mg/kg | ED50 (po): 10 mg/kg

Reference: patent publication US4017637A, “Benzylamine analgesics” (priority 1975, dated 1977)
